Experimental data taken from US20200237742A1, “Serdexmethylphenidate Conjugates, Compositions And Methods Of Use Thereof” (priority 2018, published 2020).
Counter-ions that a name gives are not always drawn.

Key:
[1] = test system: recreational stimulant abusers; assay: Intravenous study, treatment-emergent adverse events; conditions: d-methylphenidate treatment vs serdexmethylphenidate
Protocol: (§1) A study was conducted in humans to assess the intravenous abuse potential of serdexmethylphenidate relative to unconjugated d-methylphenidate and placebo in recreational stimulant abusers. This was a Phase 1, randomized, double-blind study in which serdexmethylphenidate and d-methylphenidate were administered intravenously in recreational stimulant users with a history of non-oral abuse. In Part A of the study, subjects (Cohort 1) participated in a dose-escalation phase to determine the optimal dose of intravenous d-methylphenidate based on tolerability and abuse-related pharmacodynamic assessments. […] The doses of serdexmethylphenidate and d-methylphenidate are equivalent with respect to molar amount of d-methylphenidate. FDA-recommended abuse potential measures and blood samples were collected at different times after dosing. Safety assessments were performed throughout the study.

[2] = test system: recreational stimulant abusers; assay: Intravenous abuse potential study, VAS pharmacodynamic assessments; type: in vivo, human
Source text: “Drug liking” score, used herein, is the score used to assess the degree that a human participant likes a drug effect at the time the question is being asked (that is, at the moment). It is scored using a 0 to 100 point bipolar visual analogue scale (VAS) anchored in the center with a neutral anchor of “neither like nor dislike” (score of 50), on the left with “strong disliking” (score of 0) and on the right with “strong liking” (score of 100).
“Euphoria” or “Feeling High” score, used herein, is the term to describe the score used to assess the degree that a human participant is high at the time the question is being asked (that is, at the moment). It is scored using a 0 to 100 point unipolar visual analogue scale (VAS) anchored on the left with “Not at All” (score of 0) and on the right with “Extremely” (score of 100).
“Take Drug Again” score, used herein, is the term to describe the score used to assess the degree that a human participant wants to take the drug again, if given the opportunity, based on his/her opinion now, i.e., at the time the question is being asked. It is scored using a 0 to 100 point unipolar visual analogue scale (VAS) anchored on the left with “Definitely Would Not” (score of 0) and on the right with “Definitely Would” (score of 100).
“Overall Drug Liking” score, used herein, is the term to describe the score used to assess the human subject's global perception of drug liking (i.e., the subjective effects over the whole course of the drug experience including any carryover effects). Subjects respond to the statement “Overall, my liking for this drug is.” The question is scored using a 0-100 point bipolar VAS anchored on the left with “Strong Disliking” (score of 0); “Neither Like nor Dislike” (score of 50) in the middle, and anchored on the right with “Strong Liking” (score of 100). This scale has the advantage of the human subject being relatively less affected or unaffected by acute study drug effects (if any) by the time of the assessment.
“Good Effects” score, used herein, is the term to describe the score used to assess the degree that a human participant is feeling good drug effects at the time the question is being asked (that is, at the moment). Subjects respond to the statement “At this moment, I can feel good drug effects.” It is scored using a 0 to 100 point unipolar visual analogue scale (VAS) anchored on the left with “Not at All” (score of 0) and on the right with “Extremely” (score of 100).
Safety assessments were performed throughout the study.

[3] = test system: healthy, nondependent, recreational stimulant users; assay: Oral abuse potential study, VAS pharmacodynamic assessments
[4] = Intranasal study (KP415.A02), plasma pharmacokinetics; type: in vivo, human; conditions: intranasal administration
Protocol: On dosing days in the Treatment Phase, blood samples were collected for the measurement of the plasma concentrations of SDX, d-methylphenidate (d-MPH), 1-methylphenidate (1-MPH) and ritalinic acid at predose and at 0.25, 0.5, 0.75, 1, 1.5, 2, 3, 4, 5, 6, 7, 8, 9, 10, 12, 16, 24, 36, and 48 hours ±5 minutes after each dose of study drug. […] All VAS pharmacodynamic assessments except Take Drug Again and Overall Drug Liking were performed at 0.25, 0.5, 0.75, 1, 1.5, 2, 3, 4, 5, 6, 7, 8, 10, 12, 24 hours ±5 minutes postdose. In addition, predose assessments of Feeling High, and Drowsiness/Alertness were collected. The Take Drug Again and Overall Drug Liking VAS assessments were performed at 12 and 24 hours ±5 minutes postdose. Ease of Nasal Insufflation scores were completed within 5 minutes after the completion of each intranasal drug administration during the Treatment Phase.

[5] = Intravenous pharmacokinetic study (KP415.A03) in recreational stimulant users; conditions: following intravenous administration
Protocol: as §1

[6] = Focalin XR 80 mg, phentermine HCl 60 mg, bipolar VAS
[7] = Focalin XR 80 mg, phentermine HCl 60 mg, unipolar VAS
[8] = phentermine HCl 60 mg vs SDX Cl 120 mg
[9] = phentermine HCl 60 mg vs SDX Cl 240 mg
[10] = phentermine HCl 60 mg vs placebo

COC(=O)[C@H](c1ccccc1)[C@H]1CCCCN1 [d-methylphenidate, methyl (R)-2-phenyl-2-((R)-piperidin-2-yl)acetate, reference compound]
Typical stimulant-related Adverse Events (euphoric mood, hypervigilance, increased heart rate) [1]: more common | Drug Liking Emax, statistical analysis vs. placebo ([2]; d-MPH HCl 15 mg vs placebo (study validity)): significantly higher

CC(C)(N)Cc1ccccc1 [phentermine hydrochloride, reference compound]
Drug Liking Emax, Median [3, 6]: 84.0 | Feeling Alert/Drowsy Emax, Median [3, 6]: 84.0 | Overall Drug Liking Emax, Median [3, 6]: 77.0 | Take Drug Again Emax, Median [3, 6]: 75.0 | Any Effects Emax, Median [3, 7]: 74.0 | Bad Effects Emax, Median [3, 7]: 7.0 | Feeling High Emax, Median [3, 7]: 76.0 | Good Effects Emax, Median [3, 7]: 75.0 | Mean Difference Any Effects Emax, D vs A [3, 8]: 37.4 | Mean Difference Bad Effects Emax, D vs A [3, 8]: 11.9 | Mean Difference Feeling Alert/Drowsy Emax, D vs A [3, 8]: 15.7 | Mean Difference Feeling High Emax, D vs A [3, 8]: 36.0 | Mean Difference Good Effects Emax, D vs A [3, 8]: 35.5 | Mean Difference Overall Drug Liking Emax, D vs A [3, 8]: 14.9 | Mean Difference Take Drug Again Emax, D vs A [3, 8]: 14.9 | Mean Difference Drug Liking Emax, D vs A ([3]; phentermine HCl 60 mg vs SDX Cl 120 mg, margin 10): 15.5 | Mean Difference Any Effects Emax, D vs B [3, 9]: 28.0 | Mean Difference Bad Effects Emax, D vs B [3, 9]: 4.6 | Mean Difference Feeling Alert/Drowsy Emax, D vs B [3, 9]: 12.2 | Mean Difference Feeling High Emax, D vs B [3, 9]: 27.7 | Mean Difference Good Effects Emax, D vs B [3, 9]: 30.2 | Mean Difference Overall Drug Liking Emax, D vs B [3, 9]: 15.3 | Mean Difference Take Drug Again Emax, D vs B [3, 9]: 15.4 | Mean Difference Drug Liking Emax, D vs B ([3]; phentermine HCl 60 mg vs SDX Cl 240 mg, margin 10): 14.0 | Bad Effects Emax, median difference D vs E [3, 10]: 8.0c | Mean Difference Any Effects Emax, D vs E [3, 10]: 48.5 | Mean Difference Feeling Alert/Drowsy Emax, D vs E [3, 10]: 23.5 | Mean Difference Feeling High Emax, D vs E [3, 10]: 46.4 | Mean Difference Good Effects Emax, D vs E [3, 10]: 47.6 | Mean Difference Overall Drug Liking Emax, D vs E [3, 10]: 18.6 | Mean Difference Take Drug Again Emax, D vs E [3, 10]: 17.1 | Mean Difference Drug Liking Emax, D vs E ([3]; phentermine HCl 60 mg vs placebo, margin 10, hydrochloride): 22.3 | Mean Difference Drug Liking Emax, D vs E ([3]; phentermine HCl 60 mg vs placebo, margin 10, listed as Phentermine, hydrochloride): statistically significantly higher

COC(=O)[C@H](c1ccccc1)[C@H]1CCCCN1C(=O)OC[n+]1cccc(C(=O)N[C@@H](CO)C(=O)O)c1 [serdexmethylphenidate]
conversion of SDX to the active d-methylphenidate when snorted [4]: not readily or effectively converted | conversion of serdexmethylphenidate to d-methylphenidate [5]: very little conversion | Median Difference Drug Liking Emax, A vs C ([2]; SDX Cl 30 mg vs placebo, bipolar VAS): not significantly different | Median Difference Drug Liking Emax, B vs A ([2]; d-MPH HCl 15 mg vs SDX Cl 30 mg, bipolar VAS): significantly lower | effects on multiple abuse-related endpoints vs intravenous placebo ([2]; subjects with a history of non-oral abuse of stimulants): statistically similar
